Consider two substances from patent US7217686B1, “DNA sequence encoding oncofetal ferritin protein” (Gardino Investment N.V., priority 1999, dated 2007).

Test [1] has as its system activated human lymphocytes in MLR. Nature of the test: Cytokine secretion by activated human lymphocytes in mixed lymphocyte culture (ELISA). The class given is cell-based. The note with it: 24 h culture supernatant. Here is the method: In-vitro activation of human lymphocytes without and with C48/OFF1 treatment was carried out in a mixed lymphocyte culture (MLC). Human peripheral blood lymphocytes ([…]) (responder cells) were incubated with non-related Mitomycin C (40 μgr/ml) treated lymphocytes (2×10^6/ml) in RPMI-1640 medium containing 10% Fetal Calf serum and antibiotics. The cultures were incubated for 24 h in a humidified incubator at 37° C. with 5% CO2. Supernatants were collected and the concentration of the secreted cytokines were measured using an ELISA assay kit. The level of IL-2 R, and interferon (Th1 cytokines) and IL-6 and IL-10 (TH2 cytokines) were determined.
For orientation: ELISA stands for enzyme-linked immunosorbent assay.

The test system of test [2] is zymosan induced arthritis (ZIA). Description: Zymosan induced arthritis (ZIA) in mice. The settings on record: for Knee swelling Mean +/− SD (n = 10): C48 30 μg/per mouse daily i.p. from day 1 up to 10. It is filed as in vivo. The method, then: Animals: Female ICR mice were obtained from our institution's breeding facilities and were fed a standard diet and tap water ad libidum. Induction of zymosan-induced arthritis: A homogeneous suspension of 25 mg zymosan A (Saccharomyces cerevisiae), dissolves in 1 ml endotoxin-free saline, was obtained by boiling twice followed by sonic emulsification. Arthritis was induced by intrarticular injection of 0.5 mgr/20 l zymosan into each right and left knees. Assessment of ZIA: Mice were evaluated at 14 days post zymosan injections: Swelling was quantitated by measuring the thickness of the knees with a caliper, at 14th day post ZIA and compared to the thickness prior to ZIA. Histologic processing and analysis of knee joints: Knee joints were dissected, fixed, decalcified, dehydrated, and embedded in paraffin. Standard frontal section of 7 μm were prepared and stained with eosin-hematoxilin. Disease severity was assessed by calculation of arthritic index as follows: • Semiquantitative assessment of pathologic findings was performed using a grading system, consisting of five grades. Grade 0: normal synovia; grade 1: 1–5 cellular infiltrates in the microscopic field; grade 2: 6–20 cellular infiltrates; grade 3: 21–50 infiltrates; grade 4: more than […]. • Lymphocytic nodules: grade 1: 1–3 nodules per sectio; grade 2: 4–10 nodules; grade 3: 11–20 nodules; grade 4: more than 20 nodules. • Histiocytes grading: grade 1: 1–10 cell; grade 2: 11–20 cells; grade 3: 21–30 cells; grade 4: more than 30 cells. • Synovial thickness: grade 0: presence of 1 layer of synovial cells; grade 2: 2–3 layers; grade 3: 4–6 layers; grade 4: more than 6 layers. The presence of pannus was considered evidence of severe synovitis. Treatment with C48 (OFF1): Three groups of 10 mice each, were treated by daily intraperitoneal injections of either PBS (control group) or C48 (30 μg/per mouse). Statistical analysis: The significance of comparisons between means was assessed by Student's t-test. Effect of C48 administration on ZIA: Two group of mice (n=10 each) were treated by daily i.p. injections from day 1 up to 10 (10 days), or from day 3 to 10 (7 days) (C48 delayed) following intraarticular zymosan injections. Groups of ZIA mice (n=10) which received daily injections of PBS served as control.

Test [3] concerns human bone marrow progenitor CFU-GM. Description: CFU-GM colony assay with normal human bone marrow mononuclear cells. It is filed as cell-based. The settings on record: Cond. Med. 5% vol/vol, p43 (PLF) 1 μg/ml, GM-CSF 15 ng/ml; for number of CFU-GM colonies: scored after 14 days. The method, then: Bone marrow samples from 11 healthy volunteer donors were processed by density gradient separation using […] (Sigma diagnostics, St. Louis, Mo., USA) to obtain a purified population of mononuclear cells. Colony assays were performed in a plating medium containing final concentrations of 0.92% methyl cellulose (M-281 powder, 4,000 centipoise, Fisher Scientific Co., Fair Lawn, N.J., USA), rehydrated in Iscove's modified Dulbecco's medium containing 36 mM sodium bicarbonate (Gibco, Grand Island, N.Y., USA), 30% fetal bovine serum (FBS) (HyClone, Logan, Utah, USA) 0.292 mg/ml glutamine, 100 U/ml penicillin and 0.01 mg/ml streptomycin (Biological Industries, Beit Haemek, Israel). Growth factors used were […] GM-CSF Leucomax (Sandoz Pharma) and 5% vol/vol human phytohemagglutinin-M (Difco Laboratories, Detroit, Mich., USA)-induced conditioned medium (Cond. Med.) p43 (PLF) was added at concentration of 1 μg/mL and in neutralization experiments, p43 (PLF) was preincubated with 10× excess of CM-H-9 MoAb at 37° C. for 30 min and the complex added to the assay as above. The colony assay medium contained 10^5 mononuclear cells/ml and each 1 ml was plated into triplicate wells (333 μl/well) of a 24 well tissue culture plate (Greiner, Germany). Water was added to spaces between cells to maximize humidity during incubation of the cultures. The cultures were incubated at 37° C. in 5% CO2 and 55% relative humidity. Plates were scored after 14 days for colonies containing more than 50 cells.

“And” between values parts separate entries of the source, which are not always exact repeats. Identical values can stand only once.

As for “C48/OFF 1: deletion construct encoding the unique C-terminal 48 aa of OFF1, expressed in E. coli as GST fusion protein (FPSPISPSPSCWHHYTTNRPQPQHHLLRPRRRKRPHSIPTPILIFRSP; left off: a dimerising Fc or GST)”, in test [1], the “IL-6 secreted in MLR” value is 170,779 +/− 58,800 u/mL, the “IL-10 secreted in MLR” value is given as 1125 +/− 332 u/mL, the “sIL-2R secreted in MLR” value was 50 u/mL and the “γ Interferon secreted in MLR” value came out at 46 u/mL. Besides, the “Knee swelling Mean +/− SD (n = 10)” value in test [2] (14 days post zymosan) is on record as 0.24 mm. For the same substance, in test [2] (14 days post zymosan, listed as C48), the “Knee swelling Mean +/− SD (n = 10)” value was 0.24 +/− 0.56 mm. In addition, in test [2] (C48 30 μg/per mouse daily i.p. from day 3 to 10, 14 days post zymosan, listed as C48), the “Knee swelling Mean +/− SD (n = 10), C48 delayed” value was 0.33 mm and 0.33 +/− 0.57 mm. Also, the “Arthritis Score Mean +/− SD (n = 10)” value in test [2] (C48 daily i.p. from day 1 up to 10, mean grades of pathological findings) is on record as 1 +/− 0.83. The “Arthritis Score Mean +/− SD (n = 10), C48 delayed” value in test [2] (C48 daily i.p. from day 3 to 10, mean grades of pathological findings) is given as 0.9 +/− 0.83. Further, in test [2] (C48 from day 1 to 10 or from day 3 to 10, compared with PBS), the severity of arthritis entry is “very mild”.

Consider “GM-CSF: GM-CSF Leucomax (Sandoz Pharma), growth factor used for comparison [reference compound]”, for which, in test [3] (11 donors), the “MEDIAN number of CFU-GM colonies” value is 144. Also, the “RANGE of number of CFU-GM colonies” value in test [3] (11 donors) was 50–884. Besides, the “mean number of CFU-GM colonies (AVG.)” value in test [3] (11 donors) was 276+/−257 and 276.2. Also, the “number of CFU-GM colonies” value in test [3] (Bone Marrow No. 1) is reported as 144; in test [3] (Bone Marrow No. 2), 396; in test [3] (Bone Marrow No. 3), 114; in test [3] (Bone Marrow No. 4), 66; in test [3] (Bone Marrow No. 5) it was 136; in test [3] (Bone Marrow No. 6), 250. For the same substance, the “number of CFU-GM colonies” value is listed as 50 in test [3] (Bone Marrow No. 7); 74 in test [3] (Bone Marrow No. 8); 520 in test [3] (Bone Marrow No. 9); 884 in test [3] (Bone Marrow No. 10); 405 in test [3] (Bone Marrow No. 11).
